Assay results published in patent US8419943B2, “Method of removing protein-bound deleterious substances during extracorporeal renal replacement treatment” (Fresenius Medical Care Holdings, Inc., priority 2008, dated 2013).

Assays:
[1] = normal adults; cited from earlier work
albumin = albumin (Homo sapiens, UniProt P02768); assay: Competitive displacement of indoxyl sulfate by bilirubin in model uremic plasma; format: binding; settings: uremic plasma (BUN about 55 mg/dL, albumin 3.82 g/dL) with 2 mMolar Bil-DT, 12 hours at 37° C.; control without Bil-DT 0.65 μg/ml
albumin, sequence (P02768 25-609): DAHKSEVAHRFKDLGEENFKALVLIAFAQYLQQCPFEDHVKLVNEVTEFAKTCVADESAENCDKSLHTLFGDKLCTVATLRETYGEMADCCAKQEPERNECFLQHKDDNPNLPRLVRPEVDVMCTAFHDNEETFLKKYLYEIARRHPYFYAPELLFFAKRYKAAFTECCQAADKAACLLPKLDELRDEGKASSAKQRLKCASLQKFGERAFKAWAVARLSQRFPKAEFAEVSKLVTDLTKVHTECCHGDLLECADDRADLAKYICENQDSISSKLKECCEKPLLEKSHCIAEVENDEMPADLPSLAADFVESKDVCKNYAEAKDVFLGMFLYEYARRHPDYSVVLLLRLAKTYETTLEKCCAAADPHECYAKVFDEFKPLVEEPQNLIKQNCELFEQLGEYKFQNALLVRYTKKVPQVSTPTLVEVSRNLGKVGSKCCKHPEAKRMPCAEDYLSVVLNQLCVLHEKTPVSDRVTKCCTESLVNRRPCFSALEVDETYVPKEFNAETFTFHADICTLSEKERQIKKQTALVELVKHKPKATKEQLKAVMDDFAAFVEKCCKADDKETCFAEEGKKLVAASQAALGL
Description: Two samples of uremic plasma (blood urea nitrogen (BUN) of about 55 mg/dL, albumin concentration of 3.82 g/dL) including indoxyl sulfate were incubated for 12 hours at 37° C. One sample also included 2 mMolar bilirubin ditauride (Bil-DT).

Row | Compound | non-toxic level of serum bilirubin concentration [1] | free indoxyl sulfate concentration (albumin) [µg/mL]
1 | C=CC1=C(C)/C(=C/c2[nH]c(Cc3[nH]c(/C=C4\NC(=O)C(C)=C4C=C)c(C)c3CCC(=O)O)c(CCC(=O)O)c2C)NC1=O [Bilirubin, bilirubin] | about 10 mg/dL | 
2 | bilirubin ditauride [Bil-DT] |  | 0.93
